“Also recorded” adds a separate entry of the source.
Assays:
RavS^ΔTrM = molecular target: T1, RavS^ΔTrM (Xanthomonas campestris pv. campestris, UniProt Q8P9A6); assay: microscale thermophoresis (MST) binding; settings: 20 nM fluorescein-labelled nucleotide
T1 sequence (Q8P9A6 47-697): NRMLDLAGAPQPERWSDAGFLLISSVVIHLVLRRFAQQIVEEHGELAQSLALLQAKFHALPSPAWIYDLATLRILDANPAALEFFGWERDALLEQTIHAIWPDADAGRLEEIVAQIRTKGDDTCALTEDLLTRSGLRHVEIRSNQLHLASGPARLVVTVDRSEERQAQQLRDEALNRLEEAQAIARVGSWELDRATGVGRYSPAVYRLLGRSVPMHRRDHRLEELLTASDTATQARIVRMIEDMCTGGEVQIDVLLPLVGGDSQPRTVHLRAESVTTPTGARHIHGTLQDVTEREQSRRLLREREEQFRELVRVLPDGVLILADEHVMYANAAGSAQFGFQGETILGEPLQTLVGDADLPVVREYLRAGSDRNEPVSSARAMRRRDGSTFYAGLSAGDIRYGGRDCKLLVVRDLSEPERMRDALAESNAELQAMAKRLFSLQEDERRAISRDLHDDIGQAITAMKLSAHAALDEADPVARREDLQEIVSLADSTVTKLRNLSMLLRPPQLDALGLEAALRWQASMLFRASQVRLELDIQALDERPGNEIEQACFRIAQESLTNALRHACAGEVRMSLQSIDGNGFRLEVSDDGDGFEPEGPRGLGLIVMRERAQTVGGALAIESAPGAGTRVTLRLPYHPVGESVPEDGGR
Protocol: (a) c-di-GMP enhances RavS-RavR phosphotransfer in vitro. A total of 5 μM RavS^ΔN was autophosphorylated for 15 min by the addition of 10 μCi [γ-^32P]ATP. A total of 15 μM RavR^ΔEAL or RavR^ΔEAL(D496A) was added and incubated for 30 min at 25°C. A total of 100 μM c-di-GMP was added if necessary. The reactions were terminated with 5× SDS loading buffer before autoradiography. The experiment was repeated three times. (b) Time course analyses of the impact of c-di-GMP on the velocity of RavS-RavR phosphotransfer. The autophosphorylation and phosphotransfer reactions were set as mentioned in (a). Various concentrations of c-di-GMP were added to the reactions and isotopic signals (band intensities) of RavS~P were measured after autoradiography. (c–d) c-di-GMP triggered an increase in RavS-RavR phosphotransfer in a dose-dependent manner. (c) Various concentrations of c-di-GMP (0, 5, 10, 15, 30, 50, 75 and 100 μM) were added to the RavS-RavR phosphotransfer reactions. (d) The phosphorylated level of RavS^ΔN~P was quantified by ImageJ and the EC50 value was estimated by Origin 8.5 software. In (b) and (d), the intensity of each data point is the average from three experimental repeats. (e) c-di-GMP triggered increase in RavS-RavR phosphotransfer is highly specific. […] The interaction between RavS^ΔTrM and various nucleotides, including fl-c-di-GMP, fl-cGMP and fl-c-di-AMP, were measured by microscale thermophoresis (MST). A total of 20 nM fluorescein-labelled nucleotides and increasing concentrations of proteins were incubated and measured by MST. The dissociation constant (Kd) was quantified to estimate the binding affinity. […]
The interaction between c-di-GMP nucleotides and various proteins was measured by using MST with a fluorescein-labelled c-di-GMP (2′-Fluo-AHC-c-di-GMP, abbreviated as fl-c-di-GMP; 2′-Fluo-AHC-c-di-AMP, fl-c-di-AMP; 2′-Fluo-AHC-cGMP, fl-cGMP; Biolog, Germany). These chemicals contain carboxyfluorescein that has excitation and emission wavelengths of 497 nm and 520 nm, respectively, which can be detected directly by a MST instrument. […]

RavS^ΔN = molecular target: T2, RavS^ΔN (Xanthomonas campestris pv. campestris, UniProt Q8P9A6); assay: in vitro RavS-RavR phosphotransfer assay (RavS~P level by autoradiography); format: biochemical; settings: specificity control nucleotides
T2 sequence (Q8P9A6 352-697): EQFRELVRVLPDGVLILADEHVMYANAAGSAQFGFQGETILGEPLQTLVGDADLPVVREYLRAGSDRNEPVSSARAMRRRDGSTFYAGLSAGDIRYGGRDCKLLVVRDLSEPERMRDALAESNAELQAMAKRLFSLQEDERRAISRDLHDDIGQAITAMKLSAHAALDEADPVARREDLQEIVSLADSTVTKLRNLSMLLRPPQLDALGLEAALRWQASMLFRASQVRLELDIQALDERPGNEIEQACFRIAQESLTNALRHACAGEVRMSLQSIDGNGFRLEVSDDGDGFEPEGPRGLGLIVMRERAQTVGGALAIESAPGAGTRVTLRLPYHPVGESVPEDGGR
Protocol: (a) c-di-GMP enhances RavS-RavR phosphotransfer in vitro. A total of 5 μM RavS^ΔN was autophosphorylated for 15 min by the addition of 10 μCi [γ-^32P]ATP. A total of 15 μM RavR^ΔEAL or RavR^ΔEAL(D496A) was added and incubated for 30 min at 25°C. A total of 100 μM c-di-GMP was added if necessary. The reactions were terminated with 5× SDS loading buffer before autoradiography. The experiment was repeated three times. (b) Time course analyses of the impact of c-di-GMP on the velocity of RavS-RavR phosphotransfer. The autophosphorylation and phosphotransfer reactions were set as mentioned in (a). Various concentrations of c-di-GMP were added to the reactions and isotopic signals (band intensities) of RavS~P were measured after autoradiography. (c–d) c-di-GMP triggered an increase in RavS-RavR phosphotransfer in a dose-dependent manner. (c) Various concentrations of c-di-GMP (0, 5, 10, 15, 30, 50, 75 and 100 μM) were added to the RavS-RavR phosphotransfer reactions. (d) The phosphorylated level of RavS^ΔN~P was quantified by ImageJ and the EC50 value was estimated by Origin 8.5 software. In (b) and (d), the intensity of each data point is the average from three experimental repeats. (e) c-di-GMP triggered increase in RavS-RavR phosphotransfer is highly specific. […] (f) RavS specifically interacts with fl-c-di-GMP. The interaction between RavS^ΔTrM and various nucleotides, including fl-c-di-GMP, fl-cGMP and fl-c-di-AMP, were measured by microscale thermophoresis (MST). A total of 20 nM fluorescein-labelled nucleotides and increasing concentrations of proteins were incubated and measured by MST. The dissociation constant (Kd) was quantified to estimate the binding affinity. Each experiment was repeated three times.
An in vitro autophosphorylation assay was conducted as described in our previous study. Purified protein was incubated with 10 μM ATP containing 10 μCi [γ-^32P]ATP (PerkinElmer, USA) in the reaction buffer (50 mM Tris-HCl, pH 7.8, 25 mM NaCl, 25 mM KCl, 5 mM MgCl2, 2 mM DTT) for the indicated time at 28°C. If necessary, c-di-GMP was added to the mixture at the same time as ATP. For the phosphoryl transfer assay, purified RR protein or its derivative was added into the reaction mixture containing the phosphorylated HK. The autophosphorylation or phosphoryl transfer reaction was terminated by adding 5× SDS-PAGE loading buffer. Phosphorylated proteins were separated by 12% SDS-PAGE. After electrophoresis, gels were exposed to a phosphor screen (GE Healthcare) and the autoradiographic signals were detected by a Typhoon FLA7000 (GE Healthcare).

[1] = molecular target: EAL domain of RavR (Xanthomonas campestris pv. campestris); assay: SEC + AUC; purified EAL protein, 15 uM, incubated with 300 uM c-di-GMP in phosphodiesterase reaction buffer (50 mM Tris-HCl pH 7.5, 250 mM NaCl, 25 mM KCl, 10 mM MgCl2, 2 mM DTT) at 4 C for 30 min; Superdex 75 10/300 GL to separate dimer and monomer; molecular weight of each fraction determined by analytical ultracentrifugation

Compound	impact on RavS phosphotransferase activity / velocity of RavS-RavR phosphotransfer (RavS^ΔN)	also measured
2′-Fluo-AHC-c-di-AMP [fl-c-di-AMP]	–	dissociation constant (Kd) (RavS^ΔTrM): no binding; also recorded: completely failed to bind
2′-Fluo-AHC-cGMP [fl-cGMP]	–	Kd (RavS^ΔTrM; read-out: dissociation constant (Kd)): 64.4 ± 9.43 µM
Nc1nc2c(ncn2[C@@H]2O[C@H](COP(=O)(O)O)[C@@H](O)[C@H]2O)c(=O)[nH]1 [GMP]	did not affect; also recorded: did not have any impact	–
Nc1nc2c(ncn2[C@@H]2O[C@H](COP(=O)(O)OP(=O)(O)OP(=O)(O)O)[C@@H](O)[C@H]2O)c(=O)[nH]1 [GTP]	did not affect; also recorded: did not have any impact	–
Nc1ncnc2c1ncn2[C@@H]1O[C@@H]2COP(=O)(O)O[C@H]3[C@@H](O)[C@H](n4cnc5c(N)ncnc54)O[C@@H]3COP(=O)(O)O[C@H]2[C@H]1O [c-di-AMP]	did not affect; also recorded: did not have any impact	–
Nc1nc2c(ncn2[C@@H]2O[C@@H]3COP(=O)(O)O[C@H]3[C@H]2O)c(=O)[nH]1 [cGMP]	did not affect; also recorded: did not have any impact	–
EAL domain of RavR (domain or fragment)	–	stoichiometry N [1]: 2
